Assay [1] concerns Jurkat cells. Nature of the assay: Trypan blue exclusion assay. It is filed as cell-based, human. Here is the method: Human T-cell leukemia (Jurkat), human B-cell leukemia (RS 4,11) and human promyelocytic leukemia (HL-60) cells were grown in RPMI-1640 medium (Gibco, Milan, Italy). Breast adenocarcinoma (MCF-7 and MDA-MB-231), human non-small cell lung carcinoma (A549), human cervix carcinoma (HeLa), human prostate adenocarcinoma (PC-3), and human colon adenocarcinoma (HT-29) cells were grown in DMEM medium (Gibco, Milan, Italy). […] Stock solutions (10 mM) of the different compounds were obtained by dissolving them in DMSO. Individual wells of 96-well tissue-culture microtiter plates were inoculated with 100 μL of complete medium containing 8 × 10^3 cells. The plates were incubated at 37 °C in a humidified 5% CO2 incubator for 18 h prior to the experiments. […] In additional experiments, cell viability was also determined by calculating the values of trypan blue positive cells (dead cells) and trypan blue negative (live cells) from a mixture of the cell suspension and 0.4% trypan blue solution. page 7: S-7 0 24 48 72 0.0 2.0x10 5 4.0x10 5 6.0x10^5 Cells/ml Time ([…] Figure S5 […] washed, counted, and incubated in a drug-free medium. After a further 72 h of incubation, cell viability was analyzed by trypan blue exclusion assay as described in the experimental section. (1 picture or pasted object on this page, not shown here)

The test system of the next assay is PC-3 cells. Briefly: Antiproliferative MTT assay. As to conditions: Homo sapiens, 72 h, mean ± SEM. It is filed as cell-based. In a few lines:
(§1)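 Human tumour cells (8 × 10^3/well) were pre-incubated 18 h, then exposed to test compound at different concentrations for 72 h at 37 °C, 5% CO2. Leukaemia lines grew in RPMI-1640, solid-tumour lines in DMEM, both with 10% FBS; DMSO stayed ≤0.25%.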
Background: Formazan colour is commonly taken as a measure of viable cells.

For the next assay, the system named is HT-29 cells. Nature of the assay: Antiproliferative MTT assay. It is filed as cell-based. As to conditions: Homo sapiens, 72 h, mean ± SEM. In outline:
as §1

Assay [2] has as its system Jurkat cells. Nature of the assay: Antiproliferative MTT assay. It is filed as cell-based. As to conditions: Homo sapiens, 72 h, mean ± SEM. In a few lines:
as §1

In another assay the test system is MDA-MB-231 cells. Nature of the assay: Antiproliferative MTT assay. It is filed as cell-based. As to conditions: Homo sapiens, 72 h, mean ± SEM. In a few lines:
as §1

Another assay deals with MCF-7 cells. Nature of the assay: Antiproliferative MTT assay. It is filed as cell-based. As to conditions: Homo sapiens, MCF7, 72 h, mean ± SEM. In outline:
as §1

In a further assay the test system is A549 cells. Nature of the assay: Antiproliferative MTT assay. It is filed as cell-based. As to conditions: Homo sapiens, 72 h, mean ± SEM. In outline:
as §1

The subject of another assay is HeLa cells. Briefly: Antiproliferative MTT assay. It is filed as cell-based. As to conditions: Homo sapiens, 72 h, mean ± SEM. In outline: as §1
The subject of the next assay is RS4,11 cells. Briefly: Antiproliferative MTT assay. It is filed as cell-based. As to conditions: Homo sapiens, 72 h, mean ± SEM. In a few lines:
as §1

The next assay relates to HL-60 cells. Briefly: Antiproliferative MTT assay. As to conditions: Homo sapiens, 72 h, mean ± SEM. It is filed as cell-based. In outline:
as §1

The next assay deals with HUVEC. Briefly: Antiproliferative assay in non-tumoral cells. It is filed as cell-based. As to conditions: Homo sapiens, mean ± SEM. The method, then:
Human Umbilical Vein Endothelial cells (HUVEC), were prepared from human umbilical-cord veins, as previously described. The adherent cells were maintained in M200 medium added by LSGS (low serum growth supplement), containing FBS, hydrocortisone, hEGF, bFGF, heparin, gentamycin/amphotericin (Life Technologies, Monza, Italy). Once confluent, the cells were detached by trypsin–EDTA solution and used in experiments from the first to sixth passages.

We go through one molecule from paper PMC4814829, “Design, synthesis, crystallization and biological evaluation of new symmetrical biscationic compounds as selective inhibitors of human Choline Kinase α1 (ChoKα1)” (Scientific Reports, 2016).

The structures appear in SMILES notation.

Consider `CN(C)c1cc[n+](Cc2ccc(OCCOc3ccc(C[n+]4ccc(N(C)C)cc4)cc3)cc2)cc1.[Br-].[Br-]` [Compound 10a, 1,1′-(((ethane-1,2-diylbis(oxy))bis(4,1-phenylene))bis(methylene))bis(4-(dimethylamino)pyridinium) bromide], for which the “Proliferation after washout of compound” value with Jurkat cells [1] (72 h treatment, washed, further 72 h in drug-free medium) was “proliferation continued to be inhibited”. In the assay on Jurkat cells [1] (concentration-dependent), the “Cell growth by trypan blue count” value is “significantly inhibited cell growth”. For the same molecule, the GI50 (in general, the concentration that inhibits growth by half) in the assay with PC-3 cells was 51 ± 10 nM; in the assay with HT-29 cells it was 110 ± 10 nM; in the assay with Jurkat cells [2], 120 ± 80 nM; in the assay with MDA-MB-231 cells, 100 ± 50 nM; in the assay with MCF-7 cells, 92 ± 19 nM; in the assay on A549 cells, 27 ± 10 nM. The 50% growth inhibitory concentration (GI50) in the assay on HeLa cells amounted to 79 ± 24 nM; in the assay on RS4,11 cells it was 45 ± 5 nM; in the assay on HL-60 cells it was 100 ± 40 nM; in the assay with HUVEC, 5100 ± 430 nM.
